Laboratory results published in patent US12060349B2, “Glucosylceramide synthase inhibitors” (Genzyme Corporation, priority 2012, dated 2024).
Like-named read-outs stand apart in the source and are kept apart here.

Columns and labels:
C32 human melanoma cells = assay: cell viability in the C32 cell-based assay (Viability, C32 IC50); settings: concentration causing 50% cell death, values greater than 10 represent a lack of cell death
Method in brief: (§1)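 Both lines undergo the phenotypic GM3 assay, and viability is recorded from that same cell-based run.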

[1] = test system: GM3 expression on the cell surface, C32 human melanoma cells; assay: cell based phenotypic assay, cell surface GM3 by antibody mediated immunofluorescence, C32 (GM3 C32 IC50); settings: Homo sapiens, 50% inhibition of GM3 expression on the cell surface
Method in brief: (§2)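 Two melanoma lines, mouse B16 and human C32, were treated and surface GM3 quantified by antibody immunofluorescence for IC50. A parallel viability readout gives the concentration killing 50% of cells, with values over 10 indicating no cell death.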

[2] = target: T1, glucosylceramide synthase (Homo sapiens, UniProt Q16739); assay: microsomal assay measuring conversion of ceramide to glucosylceramide by HPLC (GCS IC50); assay type: biochemical; settings: concentration causing 50% inhibition of glucosylceramide synthase activity
T1 construct: Microsomes were isolated from A375 human melanoma cells; endogenous in cells; host or cells: A375 human melanoma cells (microsomal fraction, 100,000 g pellet)
T1 sequence (Q16739 1-394): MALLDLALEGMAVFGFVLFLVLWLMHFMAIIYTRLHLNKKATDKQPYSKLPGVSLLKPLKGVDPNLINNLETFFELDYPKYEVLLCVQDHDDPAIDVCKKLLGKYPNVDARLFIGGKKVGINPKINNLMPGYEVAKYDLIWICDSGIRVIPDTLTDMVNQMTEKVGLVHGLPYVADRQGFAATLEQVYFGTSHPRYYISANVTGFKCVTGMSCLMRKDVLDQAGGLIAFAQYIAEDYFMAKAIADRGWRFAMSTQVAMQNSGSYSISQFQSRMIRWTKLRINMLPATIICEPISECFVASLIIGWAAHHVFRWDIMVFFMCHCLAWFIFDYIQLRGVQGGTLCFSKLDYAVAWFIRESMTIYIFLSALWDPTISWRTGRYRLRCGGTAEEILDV
Method in brief: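 Microsomal preparation assayed for glucosylceramide synthase by direct HPLC measurement of ceramide conversion to glucosylceramide. GCS IC50 is the compound concentration giving 50% inhibition of enzyme activity.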

[3] = test system: GM3 expression on the cell surface, B16 mouse melanoma cells; assay: cell based phenotypic assay, cell surface GM3 by antibody mediated immunofluorescence, B16 (GM3 B16 IC50); settings: Mus musculus, 50% inhibition of GM3 expression on the cell surface
Method in brief: as §2

B16 mouse melanoma cells = assay: cell viability in the B16 cell-based assay (Viability, B16 IC50)
Method in brief: as §1

[4] = Homo sapiens, C32, C32 cells, read-out: Viability, C32 IC50
[5] = C32 human melanoma cells, read-out: GM3 C32 IC50
[6] = B16 mouse melanoma cells, read-out: GM3 B16 IC50
[7] = Mus musculus, B16, B16 cells, concentration causing 50% cell death, values greater than 10 represent a lack of cell death, read-out: Viability, B16 IC50
[8] = Homo sapiens, C32, read-out: Viability, C32 IC50, C32 cells
[9] = read-out: GM3 C32 IC50, C32 human melanoma cells
[10] = read-out: GM3 B16 IC50, B16 mouse melanoma cells
[11] = Mus musculus, B16, read-out: Viability, B16 IC50
[12] = read-out: Viability, C32 IC50, C32 cells
[13] = read-out: Viability, B16 IC50, B16 cells, concentration causing 50% cell death, values greater than 10 represent a lack of cell death

IC50 [1, 5] [nM]	IC50 [3, 6] [nM]	SMILES	IC50 (C32 human melanoma cells; [4]) [nM]	IC50 [2] [nM]	IC50 (B16 mouse melanoma cells; [7]) [nM]	IC50 (C32 human melanoma cells; [8]) [nM]	IC50 [1, 9] [nM]	IC50 [3, 10] [nM]	IC50 (B16 mouse melanoma cells; [11]) [nM]	IC50 (C32 human melanoma cells; [12]) [nM]	IC50 (B16 mouse melanoma cells; [13]) [nM]
4.39	152	COCCCOc1cnc(-c2cccc(C(C)(C)NC(=O)OC3CCN4CCC3CC4)c2)cn1 (stereo not shown) [Example 316, 1-Azabicyclo[3.2.2]nonan-4-yl (2-(3-(5-(3-methoxypropoxy)pyrazin-2-yl)phenyl)propan-2-yl)carbamate]	≥ 10000	28	≥ 10000	–	–	–	–	–	–
29.1	656	COCCCOc1cnc(-c2cccc(C(C)(C)NC(=O)N3CCN4CCC3CC4)c2)cn1 [Example 317, N-(2-(3-(5-(3-Methoxypropoxy)pyrazin-2-yl)phenyl)propan-2-yl)-1,4-diazabicyclo[3.2.2]nonane-4-carboxamide]	1000	295	≥ 10000	–	–	–	–	–	–
8.04	121	CCOc1ccc(-c2cccc(C(C)(C)NC(=O)OC3CCN4CCC3CC4)c2)nn1 (stereo not shown) [Example 319, 1-Azabicyclo[3.2.2]nonan-4-yl (2-(3-(6-ethoxypyridazin-3-yl)phenyl)propan-2-yl)carbamate]	≥ 10000	75	≥ 10000	–	–	–	–	–	–
–	–	COCCCOc1cnc(-c2ccc(C(C)(C)NC(=O)OC3CN4CCC3CC4)cc2)cn1 (stereo not shown) [Example 320, Quinuclidin-3-yl (2-(4-(5-(3-methoxypropoxy)pyrazin-2-yl)phenyl)propan-2-yl)carbamate]	–	131	–	1000	11.2	201	≥ 10000	–	–
6.39	108	COCCCOc1cnc(-c2ccc(C(C)(C)NC(=O)OC3CCN4CCC3CC4)cc2)cn1 (stereo not shown) [Example 321, 1-Azabicyclo[3.2.2]nonan-4-yl (2-(4-(5-(3-methoxypropoxy)pyrazin-2-yl)phenyl)propan-2-yl)carbamate]	1000	46.1	≥ 10000	–	–	–	–	–	–
99.9	1440	COCCCOc1cnc(-c2ccc(C(C)(C)NC(=O)N3CCN4CCC3CC4)cc2)cn1 [Example 322, N-(2-(4-(5-(3-methoxypropoxy)pyrazin-2-yl)phenyl)propan-2-yl)-1,4-diazabicyclo[3.2.2]nonane-4-carboxamide]	1000	1070	≥ 10000	–	–	–	–	–	–
–	–	COCCCOc1cnc(-c2cccc(C(C)(C)NC(=O)OC3CN4CCC3CC4)c2)nc1 (stereo not shown) [Example 323, Quinuclidin-3-yl (2-(3-(5-(3-methoxypropoxy)pyrimidin-2-yl)phenyl)propan-2-yl)carbamate]	–	1160	–	1000	48.8	508	≥ 10000	–	–
8.49	157	COCCCOc1cnc(-c2cccc(C(C)(C)NC(=O)OC3CCN4CCC3CC4)c2)nc1 (stereo not shown) [Example 324, 1-Azabicyclo[3.2.2]nonan-4-yl (2-(3-(5-(3-methoxypropoxy)pyrimidin-2-yl)phenyl)propan-2-yl)carbamate]	1000	96.9	≥ 10000	–	–	–	–	–	–
–	–	COCCOc1ccc(C#CC(C)(C)NC(=O)OC2CN3CCC2CC3)cc1 (stereo not shown) [Example 329, Quinuclidin-3-yl (4-(4-(2-methoxyethoxy)phenyl)-2-methylbut-3-yn-2-yl)carbamate]	–	3140	–	–	284	2700	–	≥ 10000	≥ 10000
–	–	COCCCOc1ccc(C#CC(C)(C)NC(=O)OC2CN3CCC2CC3)cc1 (stereo not shown) [Example 331, Quinuclidin-3-yl (4-(4-(3-methoxypropoxy)phenyl)-2-methylbut-3-yn-2-yl)carbamate]	–	1330	–	–	118	1760	–	≥ 10000	≥ 10000
–	–	CC(C)(C)CCS(=O)(=O)c1ccc(C#CC(C)(C)NC(=O)OC2CN3CCC2CC3)cc1 (stereo not shown) [Example 334, Quinuclidin-3-yl (4-(4-((3,3-dimethylbutyl)sulfonyl)phenyl)-2-methylbut-3-yn-2-yl)carbamate]	–	80.2	–	≥ 10000	11.8	317	3280	–	–
4.32	193	CC(C)(C)CCS(=O)(=O)c1ccc(C#CC(C)(C)NC(=O)OC2CCN3CCC2CC3)cc1 (stereo not shown) [Example 335, 1-Azabicyclo[3.2.2]nonan-4-yl (4-(4-((3,3-dimethylbutyl)sulfonyl)phenyl)-2-methylbut-3-yn-2-yl)carbamate]	1000	14.6	2150	–	–	–	–	–	–
0.902	38.8	CC(C)(C)CCS(=O)(=O)c1ccc(C#CC(C)(C)NC(=O)NC2(C)CCN3CCC2CC3)cc1 (stereo not shown) [Example 336, 1-(4-(4-((3,3-Dimethylbutyl)sulfonyl)phenyl)-2-methylbut-3-yn-2-yl)-3-(4-methyl-1-azabicyclo[3.2.2]nonan-4-yl)urea]	≥ 10000	1.2	≥ 10000	–	–	–	–	–	–

SMILES	IC50 [1, 5] [nM]	IC50 [3, 6] [nM]	IC50 (C32 human melanoma cells; [4]) [nM]	IC50 [2] [nM]	IC50 (B16 mouse melanoma cells; [7]) [nM]	IC50 (C32 human melanoma cells; [8]) [nM]	IC50 [1, 9] [nM]	IC50 [3, 10] [nM]	IC50 (B16 mouse melanoma cells; [11]) [nM]	IC50 (C32 human melanoma cells; [12]) [nM]	IC50 (B16 mouse melanoma cells; [13]) [nM]
CCC1(NC(=O)NC(C)(C)C#Cc2ccc(CCOC)cc2)CN2CCC1CC2 (stereo not shown) [Example 325, 1-(3-Ethylquinuclidin-3-yl)-3-(4-(4-(2-methoxyethyl)phenyl)-2-methylbut-3-yn-2-yl)urea]	7.94	399	≥ 10000	92	≥ 10000	–	–	–	–	–	–
CCCC1(NC(=O)NC(C)(C)C#Cc2ccc(CCOC)cc2)CN2CCC1CC2 (stereo not shown) [Example 326, 1-(4-(4-(2-Methoxyethyl)phenyl)-2-methylbut-3-yn-2-yl)-3-(3-propylquinuclidin-3-yl)urea]	4.29	123	3160	26.6	3160	–	–	–	–	–	–
CCC1(NC(=O)NC(C)(C)C#Cc2ccc(COC)cc2)CN2CCC1CC2 (stereo not shown) [Example 327, 1-(3-Ethylquinuclidin-3-yl)-3-(4-(4-(methoxymethyl)phenyl)-2-methylbut-3-yn-2-yl)urea]	14.7	343	≥ 10000	96.2	≥ 10000	–	–	–	–	–	–
CCCC1(NC(=O)NC(C)(C)C#Cc2ccc(COC)cc2)CN2CCC1CC2 (stereo not shown) [Example 328, 1-(4-(4-(Methoxymethyl)phenyl)-2-methylbut-3-yn-2-yl)-3-(3-propylquinuclidin-3-yl)urea]	3.32	115	3160	25.1	3160	–	–	–	–	–	–
CCC1(NC(=O)NC(C)(C)C#Cc2ccc(COCc3cccnc3)cc2)CN2CCC1CC2 (stereo not shown) [Example 332, 1-(3-Ethylquinuclidin-3-yl)-3-(2-methyl-4-(4-((pyridin-3-ylmethoxy)methyl)phenyl)but-3-yn-2-yl)urea]	15.5	945	≥ 10000	49.4	≥ 10000	–	–	–	–	–	–
CCCC1(NC(=O)NC(C)(C)C#Cc2ccc(COCc3cccnc3)cc2)CN2CCC1CC2 (stereo not shown) [Example 333, 1-(2-Methyl-4-(4-((pyridin-3-ylmethoxy)methyl)phenyl)but-3-yn-2-yl)-3-(3-propylquinuclidin-3-yl)urea]	6.18	413	3160	16.1	≥ 10000	–	–	–	–	–	–
CC(C)(C)CCS(=O)(=O)c1ccc(C#CC(C)(C)NC(=O)NC2(C)CN3CCC2CC3)cc1 (stereo not shown) [Example 337, 1-(4-(4-((3,3-Dimethylbutyl)sulfonyl)phenyl)-2-methylbut-3-yn-2-yl)-3-(3-methylquinuclidin-3-yl)urea]	2.54	94.1	1000	14.5	2150	–	–	–	–	–	–
